Source: PMC12435366, “Maleic anhydride derived diphosphines: adaptable chelators for receptor-targeted ^99mTc, ^64Cu and ^188Re radiotracers” (Chemical Science, 2025)

System: DU145-PSMA+ prostate cancer xenografts
Assay type: in vivo, mice
Details: for tumour delineation in SPECT/CT scans: male SCID/Beige mice bearing DU145-PSMA+ xenografts, SPECT 15 to 120 min post-injection; for clearance from blood pool (SPECT/CT): mouse, in vivo
Experimental: The biodistribution of [^99mTcO2(DP^An-PSMAt)2]^+ and [^99mTcO2(DP^MEP-PSMAt)2]^+ was studied using SPECT/CT imaging and ex vivo biodistribution methods. In these studies, [^99mTcO2(DP^An-PSMAt)2]^+ and [^99mTcO2(DP^MEP-PSMAt)2]^+ were used directly from kit-based formulations, without further purification, mimicking procedures used in clinical radiopharmacies and nuclear medicine departments. Mice were injected with [^99mTcO2(DP^An-PSMAt)2]^+ or [^99mTcO2(DP^MEP-PSMAt)2]^+ (4–5 MBq), containing 3 μg (2.6 nmol) of DP^An-PSMAt or 3.5 μg (2.6 nmol) of (DP^MEP-PSMAt) via the tail-vein, and culled 2 h post-injection, followed by dissection, organ/tissue weighing and counting.
SPECT/CT studies were undertaken in male SCID/Beige mice bearing DU145-PSMA+ prostate cancer xenografts administered [^99mTcO2(DP^An-PSMAt)2]^+ and [^99mTcO2(DP^MEP-PSMAt)2]^+. SPECT images were acquired from 15 to 120 min post-injection of radiotracer. […]
4.10 In vivo imaging and biodistribution (DU145-PSMA+ and LNCaP)
Preparation of tumour-bearing mice: All animal experiments were ethically reviewed by an Animal Welfare & Ethical Review Board at either King’s College London or Bart’s Cancer Institute and carried out in accordance with the Animals (Scientific Procedures) Act 1986 UK Home Office regulations governing animal experimentation. Subcutaneous prostate cancer xenografts were produced in SCID/beige mice (male, 7–12 weeks old) by injecting 4 × 10^6 DU145-PSMA+ or DU145 cells suspended in PBS (100 μL) on the right shoulder. Imaging and biodistribution studies were performed once a tumour had reached 5–10 mm in diameter (3–4 weeks after injection). Subcutaneous LNCaP prostate cancer xenografts were produced in athymic nude (Crl:NU(NCr)-Foxn1nu) mice (male, 6–7 weeks old) by injecting 5 × 10^6 LNCaP cells suspended in PBS:matrigel (1:1, 200 μL) on the right flank.
Biodistribution studies using 99mTc radiotracers were performed once a tumour had reached 150– 300 mm3 in volume (2–7 weeks after injection).
SCID/beige mice bearing DU145-PSMA+ prostate cancer tumour xenografts
SPECT/CT scanning and biodistribution studies: The 99mTc radiotracers (3.9–4.5 MBq, 3 mice per group, containing DPAn-PSMAt = 3.0 µg or DPMEP-PSMAt = 3.5 µg) were administered via tail vein injection under isoflurane anaesthesia. […]
in helical scanning mode). At 2 h post-injection, the animals were euthanized by cervical dislocation, organs/tissues harvested and weighed, and radioactivity counted using a gamma […]
ii. […] After scanning, the organs/tissues were harvested, weighed and radioactivity counted […]
Urine was collected and directly analysed by reverse-phase radio-HPLC (method 2). Data were analysed in GraphPad Prism 9 (version 9.1.1) and expressed as mean ± standard deviation (SD). […]

Row | SMILES | tumour delineation in SPECT/CT scans | clearance from blood pool (SPECT/CT)
1 | COc1ccc(P(/C(C(=O)O)=C(/C(=O)NCCOCCOCCOCCOCCC(=O)NCCCC[C@H](NC(=O)N[C@@H](CCC(=O)O)C(=O)O)C(=O)O)P(c2ccc(OC)cc2)c2ccc(OC)cc2)c2ccc(OC)cc2)cc1 [[^99mTcO2(DP^An-PSMAt)2]^+, metal not drawn] | could be delineated | rapidly cleared from the blood pool via a renal pathway
2 | COCCOc1ccc(P(/C(C(=O)O)=C(/C(=O)NCCOCCOCCOCCOCCC(=O)NCCCC[C@H](NC(=O)N[C@@H](CCC(=O)O)C(=O)O)C(=O)O)P(c2ccc(OCCOC)cc2)c2ccc(OCCOC)cc2)c2ccc(OCCOC)cc2)cc1 [[^99mTcO2(DP^MEP-PSMAt)2]^+, metal not drawn] | could be delineated | rapidly cleared from the blood pool via a renal pathway
